Measurements taken from US12624031B2, “Inhibitors of ubiquitin specific peptidase 22 (USP22) and uses thereof for treating diseases and disorders” (Northwestern University, priority 2022, dated 2026).

Legend:
[1] = target: human GST-USP22 with Sgf11, Sgf73 1-105 and Sus1 (Homo sapiens, UniProt Q9UPT9); assay: in vitro USP22 deubiquitination assay (re-constructed deubiquitination module); type: biochemical; details: for IC50: customized deubiquitination assay, human GST-USP22 with Sgf11, Sgf73 1-105, Sus1, read-out: IC50 in suppressing USP22 in vitro catalytic activity
Procedure: (A) The chemical structure of S02-S106 11-((4-cyanophenyl)amino)-7,8,9,10-tetrahydrobenzo(4,5)imidazole[1,2-b]isoquinoline-6-carbonitrile, (B & C) The efficacy of USP22i-S02 analogs in inhibiting USP22 catalytic activity was determined in vitro. The representative data from a triplicate analysis of S02-S106 with S02 as a control are shown (B). The IC50 of USP22i-S02 analogs in suppressing USP22 in vitro catalytic activity are shown (C). NA, not available.
We purchased human recombinant Sgf11 and Sgf73 1-105 and Sus1 proteins from R&D Systems Inc, and re-constructed the deubiquitination activity with our human GST-USP22. The USP22 customized deubiquitination was optimized and used for in vitro screening the activity of synthetic USP22i-s02 analogs with the USP22i-s02 as a control (FIG. 12).

[2] = system: PD-L1 expression in A549 cells; assay: PD-L1 expression in A549 cells by flow cytometry; type: cell-based, human
Procedure: FIG. 13: The effects of USP22i-S02-S106 on suppression of PD-L1 expression on human lung adenocarcinoma cells. Human […] lung adenocarcinoma A549 cells were treated with S02-S106 or its lead compound S02 for 48 hours. The expression levels of PD-L1 were determined by flow cytometry. (A) Representative flow data from A549 cells treated with 2 μM S02-S106 or with 15 μM S02 are shown. DMSO treated cells were used as an untreated control and USP22 CRISPR knockout A549 cells were used as a positive control. (B) The dose-dependent inhibition of PD-L1 expression in A549 cells by S02-S106 with USP22i-S02 as a control. Data were normalized with PD-L1 expression levels in USP22-KO cells as 100% of USP22 inhibition as shown in A. (C) Inhibition of PD-L1 expression in WT and USP22-null A549 cells by S02-S106.
We then used PD-L1 expression level as a measurement to evaluate the inhibitory efficacy of USP22 by S02-S106.
To determine the specificity of USP22i-S02-S106, we treated the WT and USP22-null lung cancer cells.

[3] = system: polarized CD4+ T-regulatory cells; assay: cytotoxicity in polarized CD4+ T-regulatory cells; type: cell-based, murine; details: for cytotoxicity to Tregs: 156 ng/mL to 5 ug/mL, compared to DMSO controls; for toxicity: Example 5, no concentration given
Procedure: FIG. 2: Cytotoxicity of compounds from 156 ng/mL to 5 ug/mL concentration range in polarized CD4+ T-regulatory cells. Murine CD4+ T-cells were isolated and polarized in vitro to T-regulatory cells using 5 ng/mL IL-2, 2 μg/mL anti-IL-4, 2 μg/mL anti-IFNγ, and 1 ng/mL TGFβ. After 48 hours, the inhibitors were added to the cells.
We then synthesized all 17 compounds and validated their cytotoxicity to regulatory T cells. To this end, mouse CD4 T cells were polarized to FoxP3 Tregs for two days, followed by treatment of the cells with each of the compounds at the doses upto 5 ug/ml. […] In addition, the rest of the compounds had poor solubility in DMSO, and were not further tested.

[4] = system: FoxP3 expression in CD4+ natural T-regulatory cells; assay: FoxP3 expression in natural T-regulatory cells by flow cytometry; type: cell-based, murine
Procedure: FIGS. 3 and 4: Change in FoxP3 expression in murine CD4+ natural T-regulatory cells. Murine lymphocytes were isolated from the spleens and lymph nodes and cultured with varying concentrations of inhibitor (0.25 μg/mL to 2 μg/mL) or DMSO, anti-CD3, anti-CD28, TGFβ, and IL-2. After two days, lymphocytes were analyzed by flow cytometry for FoxP3 expression in natural T-regulatory (nTregs) gated on CD3+CD4+CD25+FoxP3+. (FIG. 3) Representative histograms of FITC::FoxP3 MFI in nTregs cultured with inhibitors at a concentration of 2 μg/mL. (FIG. 4) Representative plot of FITC::FoxP3 geometric MFI in nTregs across different concentrations of inhibitor.
We then analyzed whether treatment of Tregs with the compounds S106, 107 and 110 inhibits USP22 activity in Tregs as measured by FoxP3 expression levels by flow cytometry.

Sequence of human GST-USP22 with Sgf11, Sgf73 1-105 and Sus1 (Q9UPT9 whole entry): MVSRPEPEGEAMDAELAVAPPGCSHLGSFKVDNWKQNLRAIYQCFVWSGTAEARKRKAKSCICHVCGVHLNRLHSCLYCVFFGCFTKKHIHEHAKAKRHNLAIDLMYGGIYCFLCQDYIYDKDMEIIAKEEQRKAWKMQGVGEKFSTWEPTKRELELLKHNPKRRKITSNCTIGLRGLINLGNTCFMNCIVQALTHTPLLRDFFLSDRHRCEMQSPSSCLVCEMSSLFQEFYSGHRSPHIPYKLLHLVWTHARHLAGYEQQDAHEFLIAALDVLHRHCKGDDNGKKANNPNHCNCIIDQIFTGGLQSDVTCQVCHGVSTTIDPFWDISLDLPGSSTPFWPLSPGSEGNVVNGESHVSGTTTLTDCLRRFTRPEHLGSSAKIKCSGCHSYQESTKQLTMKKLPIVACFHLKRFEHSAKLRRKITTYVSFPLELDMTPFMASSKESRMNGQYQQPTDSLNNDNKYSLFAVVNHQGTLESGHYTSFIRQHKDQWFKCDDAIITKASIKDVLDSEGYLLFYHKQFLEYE
Sequence of human GST-USP22 with Sgf11, Sgf73 1-105 and Sus1 (Q14CW9 whole entry partner): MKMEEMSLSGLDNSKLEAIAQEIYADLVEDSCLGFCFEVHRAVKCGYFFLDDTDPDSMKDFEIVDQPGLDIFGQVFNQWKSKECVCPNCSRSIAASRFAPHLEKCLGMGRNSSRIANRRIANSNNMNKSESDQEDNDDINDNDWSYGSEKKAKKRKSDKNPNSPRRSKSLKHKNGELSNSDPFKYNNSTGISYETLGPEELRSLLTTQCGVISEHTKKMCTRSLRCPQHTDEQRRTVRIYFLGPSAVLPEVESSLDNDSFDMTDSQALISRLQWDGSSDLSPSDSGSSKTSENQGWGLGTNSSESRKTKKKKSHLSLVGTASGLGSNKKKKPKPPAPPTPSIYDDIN
Sequence of human GST-USP22 with Sgf11, Sgf73 1-105 and Sus1 (O15265 1-105 partner limits assumed): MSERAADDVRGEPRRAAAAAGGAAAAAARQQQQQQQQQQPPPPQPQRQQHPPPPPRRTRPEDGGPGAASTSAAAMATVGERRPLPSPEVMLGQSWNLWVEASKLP
Sequence of human GST-USP22 with Sgf11, Sgf73 1-105 and Sus1 (Q9NPA8 whole entry partner): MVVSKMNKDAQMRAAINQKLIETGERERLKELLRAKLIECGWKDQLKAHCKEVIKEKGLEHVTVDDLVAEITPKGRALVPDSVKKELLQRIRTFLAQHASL

N#Cc1ccc(Nc2c3c(c(C#N)c4nc5ccccc5n24)CCCC3)cc1 [Compound S02-S106, 11-((4-cyanophenyl)amino)-7,8,9,10-tetrahydrobenzo(4,5)imidazole[1,2-b]isoquinoline-6-carbonitrile]
IC50 [1]: 600 nM
improvement of USP22i-S02 inhibitory activity ([1]; cyano group at R1 position of E ring, versus USP22i-S02): at least 8 folds
USP22 inhibitory activity relative to USP22i-S02 ([1]; in vitro deubiquitination assay): most potent USP22 inhibitory activity
improvement of inhibitory efficacy ([1]; versus S02, in vitro and cell-based studies collectively): 4-8 folds
efficacy in suppressing PD-L1 expression ([2]; A549 cells, S02-S106 at 2 μM versus S02 at 15 μM): better efficacy than S02 at 15 μM
IC50 ([2]; Homo sapiens, A549 cells, 48 hours, read-out: IC50 inhibition of PD-L1 expression): ~3200 nM
PD-L1 expression in USP22-null A549 cells ([2]; USP22-null A549 cells): did not further reduce PD-L1 expression
PD-L1 expression in WT A549 cells ([2]; WT A549 cells): dramatically inhibited PD-L1 expression to a level comparable to that of USP22-null A549 cells
cytotoxicity to Tregs [3]: least cytotoxicity
toxicity [3]: without increasing its toxicity
toxicity ([3]; listed as USP22i-S02-S106): without increasing the cytotoxicity
decrease of FoxP3 expression in nTregs ([4]; 2 μg/mL, two days): higher efficacy compared to usp22i-s02
FoxP3 expression levels in Tregs ([4]; concentration of 1-2 ug): dose dependently reduced

N#Cc1c2c(c(Nc3ccc(CN)cc3)n3c1nc1ccccc13)CCCC2 [Compound S02-S113, (11-((4-aminomethyl)phenyl)amino)-7,8,9,10-tetrahydrobenzo(4,5)imidazole[1,2-b]isoquinoline-6-carbonitrile]
IC50 [1]: 300 nM
cytotoxicity to Tregs [3]: modest toxicity
toxicity [3]: highly toxic

Cn1c2nc3ccccc3c-2c(Nc2ccccc2)c2ccccc21 [Compound S201, N5-methyl-N-phenyl-5H-indolo[2,3-b]quinolin-11-amine]
cytotoxicity to Tregs [3]: extremely toxic

N,5-dimethyl-5H-indolo[2,3-b]quinolin-11-amine compound with anisole [Compound S202]
cytotoxicity to Tregs [3]: extremely toxic
